Assay results as given in publication PMC12040169 (PLOS Biology, 2025).

assay: in vitro; settings: human, hela cells, % viability

Point of comparison: `COc1cc(CNCCO)ccc1OCc1cccc(Cl)c1` [CBK270013C], viability at 28.5 h, 10 µM 94.5%. Against it:
- Cc1[nH]c2ccccc2c1C(=O)C(=O)Nc1ccc(C#N)cc1 [CBK269896] — lower, 84.6%
- COc1ccc(-c2noc(CNC(=O)Nc3ccccc3)n2)cc1OC [CBK269900] — lower, 88.3%
- Ic1cnn(Cc2nc(-c3ccccc3)no2)c1 [CBK269901] — lower, 90.3%
- CCN1CCN(c2ccc(C(=O)OC)cc2NC(=O)c2ccccc2C)CC1 [CBK269902] — lower, 92.9%
- O=C(CSc1cnn[nH]1)Nc1ccccc1F [CBK269903] — higher, 101%
- Cc1ccccc1-c1nc2ccc(NC(=O)CCC(=O)O)cc2o1 [CBK269904] — lower, 93.4%
- COc1ccc(OCCn2c(C(C)O)nc3ccccc32)cc1 (centres unmarked) [CBK269905] — lower, 93.2%
- NC1=Nc2nc3ccccc3n2C(c2ccc3c(c2)OCO3)N1 (centres unmarked) [CBK269906] — lower, 85.7%
- Cn1c(=O)[nH]c(=O)c2c1nc(CN1CCOCC1)n2CCc1ccccc1 [CBK269910] — lower, 88%
- CC(C(=O)NCCN1CCOCC1)N1c2cccc3cccc(c23)S1(=O)=O (centres unmarked) [CBK269911] — lower, 91.2%
- Cc1cccnc1NC(=O)C1CCCN1S(=O)(=O)c1ccc(Cl)cc1 (centres unmarked) [CBK269914] — lower, 83.2%
- O=C(NCCc1cccs1)Nc1ccccc1 [CBK269917] — lower, 88.7%
- O=c1[nH]c(CN2CCN(c3ncccn3)CC2)nc2ccccc12 [CBK269918] — higher, 98.3%
- CC(=O)Nc1ccc(NC(=O)CC2SCCNC2=O)cc1 (centres unmarked) [CBK269921] — lower, 89.6%
- CCOC(=O)CC1C(=O)NCCN1C/C=C/c1ccccc1 (centres unmarked) [CBK269922] — lower, 90.7%
- COc1ccc(C(=O)Nc2ccccc2C(=O)N2CCOCC2)cc1Br [CBK269923] — lower, 85.4%
- CCOc1c(OC)cc(C#N)cc1C(=O)O [CBK269925] — lower, 87.3%
- CCOc1ccc(N2C(=O)CC(N3CCN(CCc4ccncc4)CC3)C2=O)cc1 (centres unmarked) [CBK269930] — higher, 106%
- N#Cc1ccc(NC(=O)CSc2cnn[nH]2)cc1 [CBK269931] — lower, 87.7%
- Cc1nn(Cc2cccc3ccccc23)c(C)c1NC(=O)c1ccccn1 [CBK269936] — higher, 105%
- COc1ccc(Cl)cc1NS(=O)(=O)N1CCOCC1 [CBK269937] — lower, 93%
- O=C(NCCCn1ccnc1)c1cccnc1-c1nc2ccccc2s1 [CBK269939] — lower, 90.5%
- CC(C)(Oc1ccc(Cl)cc1)C(=O)Nc1ccc(CN2CCOCC2)cc1 [CBK269940] — lower, 89.1%
- O=C(O)CCCn1cc(NC(=O)c2c(F)cccc2F)cn1 [CBK269941] — lower, 86.6%
- CC(Oc1ccc(S(=O)(=O)N2CCN(C)CC2)cc1)C(=O)NC1CCCCC1 (centres unmarked) [CBK269943] — higher, 97.9%
- O=C(NCCCN1CCOCC1)C1CCCN1S(=O)(=O)c1ccc(Cl)cc1 (centres unmarked) [CBK269944] — lower, 92.1%
- Cc1cc(NS(=O)(=O)N2CCCCC2)no1 [CBK269947] — higher, 100%
- O=C(Nc1ccccc1N1CCN(C(=O)c2ccccc2)CC1)c1cccnc1 [CBK269948] — higher, 100%
- COc1ccccc1-c1nnc(SCc2cccc(C(=O)O)c2)[nH]1 [CBK269952] — lower, 85.3%
- O=C(O)CC1C(=O)NCCN1Cc1cccc(C(F)(F)F)c1 (centres unmarked) [CBK269958] — lower, 91.1%
- Cc1cccc(OC(C)C(=O)Nc2ccccc2C(=O)N2CCCCC2)c1 (centres unmarked) [CBK269960] — lower, 85.4%
- c1ccc(-c2nnc(CSc3nnc(-c4ccncc4)[nH]3)o2)cc1 [CBK269962] — higher, 94.9%
- O=C(Nc1cccnc1)c1ccc(NC(=O)C2OCCc3ccccc32)cc1 (centres unmarked) [CBK269963] — lower, 86.6%
- NC(CCc1nc2ccccc2[nH]1)c1nc2ccccc2[nH]1 (centres unmarked) [CBK269970] — higher, 96.2%
- COc1ccccc1NC(=O)Cn1nc(-c2ccc(C)cc2)ccc1=O [CBK269974] — lower, 93.1%
- O=C(COc1ccc2c(c1)OCO2)N1CCN(Cc2ccccc2)CC1 [CBK269977] — lower, 84.8%
- CC1(C)CC(=O)C2=C(C1)N=C(Nc1nc3ccccc3o1)NC2c1ccccn1 (centres unmarked) [CBK269978] — lower, 88.8%
- O=C(O)Cc1ccc(NS(=O)(=O)c2ccc(F)cc2)cc1 [CBK269981] — lower, 94.2%
- Nc1cc(=O)[nH]c(=O)n1CCc1ccccc1 [CBK269984] — lower, 86%
- COc1ccc(CN2CCNC(=O)C2CC(=O)O)cc1OC (centres unmarked) [CBK269991] — higher, 102%
- COc1ccc(C)c(NC(=O)NCCc2c[nH]cn2)c1 [CBK269992] — lower, 88.8%
- O=C(Nc1ccc(Cl)cc1C(=O)O)c1ccccc1 [CBK269993] — lower, 87.5%
- CCOc1ccc(Cl)cc1S(=O)(=O)NCCO [CBK269996] — lower, 94%
- COc1ccc(Cl)cc1S(=O)(=O)N1CCC(C(=O)NCCO)CC1 [CBK270002] — lower, 84%
- c1ccc(-c2nnc(SCc3nnc(-c4ccccc4)o3)[nH]2)cc1 [CBK270003] — higher, 104%
- CCOc1ccccc1NC(=O)CSc1c[nH]nn1 [CBK270005] — lower, 83.3%
- O=C(Nc1ccccc1N1CCOCC1)c1cccc(OCc2ccccc2)c1 [CBK270011] — higher, 104%
- COc1cc(NC(=O)CC2NC3CCCCC3NC2=O)cc(OC)c1OC (centres unmarked) [CBK270012] — lower, 84.5%
- O=C(Nc1ccc(S(=O)(=O)NCCN2CCOCC2)cc1)N1CCCC1 [CBK270015] — lower, 89.8%
- O=C(Nc1ccc(Cl)c(C(=O)O)c1)c1cccc(-n2cnnc2)c1 [CBK270016] — lower, 86.5%
- Cc1nnc(SCc2cc(=O)[nH]c(N3CCN(c4ccccc4F)CC3)n2)s1 [CBK270017] — higher, 97.8%
- COc1ccc(C(=O)NCCCc2nc3ccccc3[nH]2)cc1OC [CBK270018] — higher, 101%
- COc1cccc(NC(=O)NCCc2ccncc2)c1 [CBK270022] — lower, 90.3%
- CC1(C)CC(=O)C2=C(C1)NC(Nc1nc3ccccc3s1)=NC2c1cccnc1 (centres unmarked) [CBK270025] — higher, 99.4%
- Cc1cc(S(=O)(=O)N2CCCC2)ccc1OCC(=O)NCc1ccccn1 [CBK270027] — higher, 96%
- Cc1ccc(NC(=O)CN2C(=O)c3ccccc3C2=O)c(O)c1 [CBK270028] — lower, 88.2%
- Nc1nc(/C=C/c2cccs2)nc(-c2ccccc2O)n1 [CBK270033] — higher, 105%
- O=C(Nc1ccc(N2CCN(C(=O)c3ccco3)CC2)cc1)c1cccnc1 [CBK270034] — higher, 102%
- Cn1c(=O)[nH]c(=O)c2c1nc(CN1CCOCC1)n2Cc1ccc(F)cc1 [CBK270040] — higher, 99.2%
- COc1ccc(CC(=O)NCc2nc(-c3ccc(OC)cc3)no2)cc1 [CBK270043] — lower, 92%
- OCCN1CCN(c2nnc(-c3ccccc3)cc2-c2ccccc2)CC1 [CBK270045] — lower, 86.2%
- O=C(c1cccnc1)N1CCN(C2CC(=O)N(c3ccc(F)cc3)C2=O)CC1 (centres unmarked) [CBK270049] — lower, 91.5%
- Ic1cnn(Cc2nc(-c3ccc4c(c3)OCO4)no2)c1 [CBK270050] — higher, 106%
- O=C(Nc1ccc(C(=O)O)c(O)c1)c1ccc(Br)o1 [CBK270053] — lower, 87%
- CN1CCN(C(=O)c2ccccc2NC(=O)c2ccc(C(C)(C)C)cc2)CC1 [CBK270054] — lower, 93.4%
- O=C(CCn1cnc2ccccc2c1=O)Nc1ccccc1C(F)(F)F [CBK270056] — higher, 101%
- Nc1nnc(SCc2nc(=O)c3ccccc3[nH]2)s1 [CBK270059] — lower, 92.2%
- c1ccc(-c2nnc(-c3ccncc3)nc2-c2ccccc2)cc1 [CBK270061] — lower, 81.1%
- O=C(O)COc1ccc(NC(=O)C2CCCO2)cc1 (centres unmarked) [CBK270063] — higher, 102%
- CCc1ccc(Nc2nc(N)nc(CN3CCN(c4ccccn4)CC3)n2)cc1 [CBK270064] — higher, 102%
- CCOC(=O)CC1C(=O)NCCN1Cc1ccoc1 (centres unmarked) [CBK270066] — lower, 92.4%
- Cc1nn(-c2ccc(N3CCNCC3)nn2)c(=O)c2ccccc12 [CBK270067] — lower, 88.1%
- O=C(O)c1cccc(NS(=O)(=O)c2cccs2)c1 [CBK270068] — lower, 59.5%
- O=C(CSc1nnc(-c2ccncc2)s1)Nc1ccc(Cl)cc1 [CBK270069] — lower, 87.9%
- O=C(O)COc1cccc(NC(=O)c2cc3ccccc3o2)c1 [CBK270071] — lower, 90.3%
- CCOc1ccc(S(=O)(=O)N2CCC(C(=O)N3CCN(C)CC3)CC2)cc1 [CBK270075] — lower, 88.8%
- Cc1ccc(C(=O)Nc2ccccc2)cc1S(=O)(=O)N1CCN(C)CC1 [CBK270076] — lower, 90.2%
- O=C(Cn1c(=O)oc2ccccc21)Nc1ccc(N2CCOCC2)c(Cl)c1 [CBK270079] — higher, 102%
- Cn1nnnc1SCCNCc1ccc2c(c1)n(C)c(=O)n2C [CBK270080C] — higher, 99.8%
- COc1cc(-c2nc(C(C)=O)c(C)n2O)cc(OC)c1OC [CBK270083] — higher, 95.6%
- Cc1cccc(C)c1N1CCN(CC(O)COc2ccc3c(C)cc(=O)oc3c2)CC1 (centres unmarked) [CBK270084] — lower, 91.2%
- Cn1c(=O)[nH]c(=O)c2c1nc(CN1CCOCC1)n2Cc1c(F)cccc1Cl [CBK270085] — lower, 90.5%
- COc1ccccc1N1CCN(CC(=O)Nc2cc(Cl)ccc2C)CC1 [CBK270087] — higher, 105%
- N#Cc1ccccc1NC(=O)CN1CCCCCC1 [CBK270088] — lower, 87.8%
- O=C(CSc1nnnn1-c1cccnc1)NC1CCCCCC1 [CBK270092] — lower, 83.9%
- COc1cc(Br)c(-c2nnn[nH]2)cc1OC [CBK270093] — higher, 108%
- Cn1c(=O)n(C)c2cc(NC(=O)CN(c3ccccc3)S(C)(=O)=O)ccc21 [CBK270094] — higher, 103%
- Cc1nonc1NC(=O)CSc1nc2cc(Cl)ccc2[nH]1 [CBK270095] — lower, 84.8%
- Cc1cccc(C)c1OCC(=O)Nc1ccccc1C(=O)N1CCOCC1 [CBK270096] — lower, 91.2%
- CCc1cc(S(=O)(=O)NC2CC(C)(C)NC(C)(C)C2)ccc1OC [CBK270097] — lower, 92%

same assay, conditions: human, hela cells, % viability, bulk resorufin, single well

Molecule `CSc1nnc(C(N)Cc2c[nH]c3ccccc23)o1` (centres unmarked) [CBK269950C] has a viability at 28.5 h, 10 µM of 89.8%.
